The values below come from patent US20130190514A1, “PHENYLALKYL N-HYDROXYUREAS FOR TREATING LEUKOTRIENE RELATED PATHOLOGIES” (TALLIKUT PHARMACEUTICALS, INC., priority 2010, published 2013).

The subject of assay [1] is leukotriene B4 (LTB4). The assay can be described thus: Ex vivo LTB4 in blood by ELISA, Phase 2 ACS study. Details: species or system human. The following applies: trough drug levels. Here is the method:
(§1) In this randomized, placebo-controlled study, 191 patients were randomized 3 weeks after an acute coronary syndrome (ACS) to receive 25, 50, or 100 mg N-[3-[5-[(4-fluorophenyl)methyl]-2-thienyl]-1-methyl-2-propynyl]-N-hydroxyurea or placebo qd for 12 weeks. Baseline assessments were performed at the start of treatment and these baseline results were compared with repeat assessments during various follow-up periods during the treatment study. A subset of 93 patients who had undergone a Multidetector (64 slice coronary) Computerized Tomography (MDCT) examination at baseline continued on study medication for a total of 24 weeks and underwent a repeat scan. Patients received a single daily oral dose of 25 mg, 50 mg, or 100 mg of N-[3-[5-[(4-fluorophenyl)methyl]-2-thienyl]-1-methyl-2-propynyl]-N-hydroxyurea or matching placebo by administering 2 capsules as prepared in Example 3 for 12 weeks or 24 weeks. Blood samples for measurement of ex vivo leukotriene B4 (LTB4) and high sensitivity C reactive protein (hsCRP), and urine samples for measurement of urinary leukotriene E4 (LTE4) levels were collected pre-dose on weeks 2, 6 and 12. Blood samples were assayed for ex vivo LTB4 by enzyme-linked immunosorbent assay, and for hsCRP by an immunoturbidimetric method. Urine samples were assayed for LTE4 using Liquid Chromatography with Tandem Mass Spectrometry (LC/MS/MS).
In general terms: An ELISA detects its analyte on a solid surface through an enzyme-linked reagent.

The test system of assay [2] is leukotriene E4 (LTE4). In words: Urinary LTE4 by LC/MS/MS, Phase 2 ACS study. As to conditions: all doses (25, 50, 100 mg qd). The assay is classed as in vivo, human. The procedure:
as §1

Assay [3] relates to high sensitivity C reactive protein (hsCRP). In words: hsCRP in blood by immunoturbidimetric method, Phase 2 ACS study. In kind it is in vivo, human. Here is the method:
as §1

Assay [4] concerns non-calcified plaque. In words: Coronary plaque by MDCT (64-slice CT), Phase 2 ACS study, 24-week substudy. The following applies: all three doses, serial MDCT images at 24 weeks. In kind it is in vivo, human. Here is the method: In this randomized, placebo-controlled study, 191 patients were randomized 3 weeks after an acute coronary syndrome (ACS) to receive 25, 50, or 100 mg N-[3-[5-[(4-fluorophenyl)methyl]-2-thienyl]-1-methyl-2-propynyl]-N-hydroxyurea or placebo qd for 12 weeks. Baseline assessments were performed at the start of treatment and these baseline results were compared with repeat assessments during various follow-up periods during the treatment study. A subset of 93 patients who had undergone a Multidetector (64 slice coronary) Computerized Tomography (MDCT) examination at baseline continued on study medication for a total of 24 weeks and underwent a repeat scan. For those patients who continued on study medication for a total of 24 weeks, contrast-enhanced CT examination was performed at baseline and after 24 weeks of treatment with a 64-slice scanner (GE LightSpeed VCT; GE Healthcare, USA). Target plaque lesions were defined prospectively as non-calcified plaque with measurable low-density components of <60 HU situated in the proximal or middle portion of either the left main, left anterior ascending, left circumflex or right coronary artery causing at least 20% luminal stenosis. Prior to analysis of results, patients had their MDCT examinations evaluated twice by the same reviewer and also by a second reviewer for evaluation of intraobserver and interobserver variability of measurements.

The subject of assay [5] is inflammatory genes, including IL-6, IL 8, IL-10, MMP9, I-kappa-B, osteopontin. In words: Inflammatory gene expression in carotid plaques (TaqMan), Phase 2 CEA study. The assay is classed as in vivo, human. As to conditions: rupture-prone plaque subtypes, 100 mg qd oral, 12 weeks. The procedure: In this randomized, double blind, placebo-controlled study, 50 patients with significant carotid artery stenosis (60-90%) were treated once daily for 12 weeks with orally administered 100 mg N-[3-[5-[(4-fluorophenyl)methyl]-2-thienyl]-1-methyl-2-propynyl]-N-hydroxyurea or placebo prior to undergoing CEA, at which time endarterectomy tissue (plaque) was collected and stored for subsequent tissue analysis. Baseline assessments are performed at the start of treatment and these baseline results were compared with repeat assessments during various follow-up periods of treatment. The treatment was conducted for twelve weeks at which time these baseline assessments were performed and compared.
At the end of 12 weeks treatment with 100 mg of N-[3-[5-[(4-fluorophenyl)methyl]-2-thienyl]-1-methyl-2-propynyl]-N-hydroxyurea, patients underwent CEA, at which time endarterectomy tissue (plaque) was collected, fixed in 10% formalin and paraffin blocks, and stored for subsequent tissue analysis. […] A portion of each of the plaques was also analyzed for inflammatory gene expression after isolation of total RNA and reverse transcription using a TaqMan® High Capacity cDNA assay.
LTB4, LTE4 and hsCRP biomarker data were assessed using change from baseline comparisons and an ANCOVA was used to compare the treatment groups where the covariate was the baseline value of the outcome measure. […]
(In general: Real-time PCR tracks product formation cycle by cycle.)

As to `CC(C#Cc1ccc(Cc2ccc(F)cc2)s1)N(O)C(N)=O` (centres unmarked) [VIA-2291, N-[3-[5-[(4-fluorophenyl)methyl]-2-thienyl]-1-methyl-2-propynyl]-N-hydroxyurea], the “inhibition of ex vivo LTB4” value in assay [1] (100-mg group, in >90% of patients) was “approximately 80%”. Besides, the “ex vivo leukotriene LTB4” value in assay [1] (all doses (25, 50, 100 mg qd), P<0.0001, dose-dependent) is “significantly reduced”. In assay [2], the “urinary leukotriene LTE4” value is reported as “significantly reduced”. Moreover, the “hsCRP within group between 12 and 24 weeks” value in assay [3] (100 mg group, P<0.01) is listed as “significant reduction”. Further, the “decrease in hsCRP compared with placebo” value in assay [3] (100-mg group at 24 weeks, P=0.0002) turned out to be 67%. In addition, in assay [4], the “new plaque lesions compared with placebo” value is listed as “reduced” and the “non-calcified plaque volume compared with placebo” value is listed as “reduced”. Also, in assay [5], the “expression of inflammatory genes, including IL-6, IL 8, IL-10, MMP9, I-kappa-B, osteopontin” value is reported as “reduction in expression”.
